Literature values as cited in paper PMC12125103 (Naunyn-Schmiedeberg's Archives of Pharmacology, 2024).

For etelcalcetide [Parsabiv], the “maximum single dose in healthy humans for safe tolerance” value is listed as 10 mg.
